Calls of active or inactive are those of the source. The rule behind the calls is not given here.
Columns and labels:
KARPAS-299 [1] = assay: Antitumor activity against human KARPAS-299 cells xenografted in NCG mouse assessed as reduction in tumor volume at 5 to 10 mg/kg, iv administered once every day for 3 weeks and measured every 3 days; format: functional, organism-based; settings: dose 5-10 mg/kg
[2] = molecular target: ALK tyrosine kinase receptor (Homo sapiens, UniProt Q9UM73)
[3] = molecular target: T1, Protein cereblon/ALK tyrosine kinase receptor/Echinoderm microtubule-associated protein-like 4 (Homo sapiens) (UniProt Q9UM73+Q9HC35+Q96SW2); assay: Protac activity at CRBN/EML4-ALK in human NCI-H3122 cells assessed as reduction in EML4-ALK fusion protein level at 100 nM measured after 16 hrs by Western blot analysis relative to control; format: cell-based; parameters: scale not given: the % may be the effect or the level left
T1 sequence (Q96SW2 whole entry partner, the tested form may be a part): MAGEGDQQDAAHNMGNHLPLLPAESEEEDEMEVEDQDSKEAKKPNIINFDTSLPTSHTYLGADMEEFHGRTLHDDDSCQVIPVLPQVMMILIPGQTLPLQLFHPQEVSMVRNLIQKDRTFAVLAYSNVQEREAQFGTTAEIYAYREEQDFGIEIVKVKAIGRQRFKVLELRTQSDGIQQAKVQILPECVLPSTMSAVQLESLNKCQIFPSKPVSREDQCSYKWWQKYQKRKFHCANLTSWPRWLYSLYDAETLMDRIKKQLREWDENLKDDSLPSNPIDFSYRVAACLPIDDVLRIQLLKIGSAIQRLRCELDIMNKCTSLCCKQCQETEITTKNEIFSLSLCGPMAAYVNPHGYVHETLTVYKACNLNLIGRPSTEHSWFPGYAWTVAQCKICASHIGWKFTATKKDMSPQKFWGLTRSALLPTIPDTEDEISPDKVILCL
T1 sequence (Q9HC35 whole entry partner, the tested form may be a part): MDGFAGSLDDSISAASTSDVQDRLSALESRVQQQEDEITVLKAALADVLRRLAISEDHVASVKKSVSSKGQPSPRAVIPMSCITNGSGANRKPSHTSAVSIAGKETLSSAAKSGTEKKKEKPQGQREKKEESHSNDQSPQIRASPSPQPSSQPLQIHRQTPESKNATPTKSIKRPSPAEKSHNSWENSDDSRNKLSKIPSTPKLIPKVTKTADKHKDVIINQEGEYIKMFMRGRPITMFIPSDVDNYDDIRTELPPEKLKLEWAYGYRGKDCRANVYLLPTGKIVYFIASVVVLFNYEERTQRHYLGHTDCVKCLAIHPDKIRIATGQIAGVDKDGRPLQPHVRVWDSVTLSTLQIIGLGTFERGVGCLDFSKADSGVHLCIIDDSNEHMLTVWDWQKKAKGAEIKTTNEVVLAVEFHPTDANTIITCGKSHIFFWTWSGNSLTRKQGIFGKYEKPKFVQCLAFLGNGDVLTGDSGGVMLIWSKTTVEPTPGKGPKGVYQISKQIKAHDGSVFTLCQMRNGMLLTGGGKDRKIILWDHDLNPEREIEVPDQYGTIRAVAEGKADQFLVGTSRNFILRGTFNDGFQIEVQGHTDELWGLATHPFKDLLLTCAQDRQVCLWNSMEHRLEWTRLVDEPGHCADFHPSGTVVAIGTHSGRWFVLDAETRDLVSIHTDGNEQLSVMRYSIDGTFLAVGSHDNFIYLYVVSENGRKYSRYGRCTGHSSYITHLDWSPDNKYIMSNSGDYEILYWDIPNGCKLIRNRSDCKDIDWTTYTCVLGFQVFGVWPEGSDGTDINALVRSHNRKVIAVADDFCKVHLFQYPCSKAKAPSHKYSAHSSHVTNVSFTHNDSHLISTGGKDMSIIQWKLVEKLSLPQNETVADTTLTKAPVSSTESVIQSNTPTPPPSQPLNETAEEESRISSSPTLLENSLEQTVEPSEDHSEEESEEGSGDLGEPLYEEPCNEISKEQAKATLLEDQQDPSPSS
T1 sequence (Q9UM73 19-1620 limits assumed): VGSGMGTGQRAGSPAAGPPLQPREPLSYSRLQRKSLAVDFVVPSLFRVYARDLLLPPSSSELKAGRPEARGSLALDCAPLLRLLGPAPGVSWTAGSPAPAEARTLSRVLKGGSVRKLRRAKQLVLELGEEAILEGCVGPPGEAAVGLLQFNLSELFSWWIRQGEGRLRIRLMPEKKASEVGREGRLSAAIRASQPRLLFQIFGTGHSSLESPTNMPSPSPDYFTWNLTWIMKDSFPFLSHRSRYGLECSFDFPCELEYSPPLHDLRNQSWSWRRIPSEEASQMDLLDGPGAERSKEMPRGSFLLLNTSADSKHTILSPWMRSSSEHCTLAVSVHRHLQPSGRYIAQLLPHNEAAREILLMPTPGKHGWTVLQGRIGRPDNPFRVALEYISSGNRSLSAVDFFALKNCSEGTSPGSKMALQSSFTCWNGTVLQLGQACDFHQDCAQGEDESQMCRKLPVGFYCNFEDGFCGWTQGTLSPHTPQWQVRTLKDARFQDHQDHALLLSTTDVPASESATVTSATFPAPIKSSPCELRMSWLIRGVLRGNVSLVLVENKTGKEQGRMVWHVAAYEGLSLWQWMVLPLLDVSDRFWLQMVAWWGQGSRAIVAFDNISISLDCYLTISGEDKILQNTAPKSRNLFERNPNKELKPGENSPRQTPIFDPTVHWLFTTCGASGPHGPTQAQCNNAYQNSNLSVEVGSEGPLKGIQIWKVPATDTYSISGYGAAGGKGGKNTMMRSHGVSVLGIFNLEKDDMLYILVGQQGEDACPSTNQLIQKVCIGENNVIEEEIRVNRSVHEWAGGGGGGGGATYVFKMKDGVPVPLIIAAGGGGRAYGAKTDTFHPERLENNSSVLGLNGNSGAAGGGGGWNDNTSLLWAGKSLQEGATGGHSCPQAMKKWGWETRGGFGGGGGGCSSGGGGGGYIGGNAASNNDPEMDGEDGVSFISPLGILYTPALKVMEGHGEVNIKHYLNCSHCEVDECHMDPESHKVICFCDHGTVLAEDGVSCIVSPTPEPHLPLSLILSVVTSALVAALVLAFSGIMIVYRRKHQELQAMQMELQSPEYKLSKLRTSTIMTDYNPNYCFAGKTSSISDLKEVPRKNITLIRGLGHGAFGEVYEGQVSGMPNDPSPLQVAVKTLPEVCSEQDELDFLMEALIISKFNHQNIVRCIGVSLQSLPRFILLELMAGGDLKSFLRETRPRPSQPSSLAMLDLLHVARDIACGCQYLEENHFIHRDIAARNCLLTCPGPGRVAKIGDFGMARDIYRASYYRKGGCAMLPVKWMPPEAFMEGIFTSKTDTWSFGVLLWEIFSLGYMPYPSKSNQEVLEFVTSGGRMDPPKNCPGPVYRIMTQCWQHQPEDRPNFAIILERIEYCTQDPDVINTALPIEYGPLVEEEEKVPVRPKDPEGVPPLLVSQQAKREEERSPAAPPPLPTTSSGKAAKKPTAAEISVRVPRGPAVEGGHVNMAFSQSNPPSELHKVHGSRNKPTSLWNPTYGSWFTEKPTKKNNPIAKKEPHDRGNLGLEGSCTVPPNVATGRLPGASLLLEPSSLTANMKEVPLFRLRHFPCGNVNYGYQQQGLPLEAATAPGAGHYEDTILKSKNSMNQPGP

BaF3 [4] = assay: Antiproliferative activity against mouse BaF3 cells assessed as cell viability at 1 uM incubated for 72 hrs by Celltitre-Glo assay relative to control; format: functional; settings: read-out: Activity
KARPAS-299 [5] = assay: Antitumor activity against human KARPAS-299 cells xenografted in NCG mouse assessed as reduction in tumor weight at 5 to 10 mg/kg, iv administered once every day for 3 weeks and measured every 3 days; format: functional, organism-based; settings: dose 5-10 mg/kg
[6] = Volume of distribution in Sprague-Dawley rat at 1 mg/kg, iv administered as single dose measured for 24 hrs by LC-MS/MS analysis; format: ADME, organism-based; settings: in vivo
KARPAS-299 [7] = assay: Antitumor activity against human KARPAS-299 cells xenografted in NCG mouse assessed as increase in ALK protein degradation at 5 to 10 mg/kg, iv administered once every day for 3 weeks; format: functional, organism-based; settings: dose 5-10 mg/kg
[8] = Toxicity in NCG mouse xenografted with human KARPAS-299 cells assessed as kidney damage at 10 mg/kg, iv administered once every day for 3 weeks by H and E staining based analysis; format: organism-based; settings: in vivo, 504 h
KARPAS-299 [9] = assay: Downregulation of jun-B protein expression in human KARPAS-299 cells at 1 uM incubated for 24 hrs by iTRAQ proteomics analysis; format: functional, cell-based
BaF3 [10] = assay: Antiproliferative activity against crizotinib-resistant mouse BaF3 cells expressing EML-ALK L1152R mutant assessed as cell viability at 1 uM incubated for 72 hrs by Celltitre-Glo assay relative to control; format: functional; settings: read-out: Activity
[11] = Tmax in Sprague-Dawley rat at 50 mg/kg, ip administered as single dose measured for 24 hrs by LC-MS/MS analysis; format: ADME, organism-based; settings: in vivo
[12] = molecular target: Protein cereblon/ALK tyrosine kinase receptor/Nucleophosmin (Homo sapiens, UniProt P06748+Q96SW2+Q9UM73); assay: Protac activity at CRBN/NPM-ALK in human KARPAS-299 cells assessed as induction of NPM-ALK fusion protein degradation incubated for 48 hrs by Western blot analysis; format: cell-based
[13] = In vivo induction of degradation of ALK in human KARPAS-299 cells xenografted in NCG mouse assessed as reduction in ALK protein expression in tumor at 10 mg/kg, iv administered as single dose measured after 12 hrs by immunoblot analysis relative to control; format: functional; parameters: scale not given: the % may be the effect or the level left
[14] = molecular target: Protein cereblon/ALK tyrosine kinase receptor/Echinoderm microtubule-associated protein-like 4 (Homo sapiens, UniProt Q96SW2+Q9HC35+Q9UM73); assay: Protac activity at CRBN/EML4-ALK in human NCI-H3122 cells assessed as induction of EML4-ALK fusion protein degradation incubated for 16 hrs by Western blot analysis; format: cell-based
KARPAS-299 [15] = assay: Downregulation of SESN2 protein expression in human KARPAS-299 cells at 1 uM incubated for 24 hrs by iTRAQ proteomics analysis; format: functional, cell-based
[16] = molecular target: T1, Protein cereblon/ALK tyrosine kinase receptor/Echinoderm microtubule-associated protein-like 4 (Homo sapiens); assay: Protac activity at CRBN/EML4-ALK in human NCI-H3122 cells assessed as induction of EML4-ALK fusion protein degradation at 1 uM incubated for 16 hrs by Western blot analysis relative to control; format: cell-based
KARPAS-299 [17] = assay: Antitumor activity against human KARPAS-299 cells xenografted in NCG mouse assessed as reduction in tumor weight at 25 to 50 mg/kg, ip administered once every day for 3 weeks and measured every 3 days; format: functional, organism-based; settings: dose 25-50 mg/kg
[18] = molecular target: T1, Protein cereblon/ALK tyrosine kinase receptor/Echinoderm microtubule-associated protein-like 4 (Homo sapiens); assay: Protac activity at CRBN/EML4-ALK in human NCI-H3122 cells assessed as induction of EML4-ALK fusion protein degradation at 0.1 uM incubated for 16 hrs by Western blot analysis relative to control; format: cell-based
[19] = molecular target: Protein cereblon/ALK tyrosine kinase receptor/Nucleophosmin (Homo sapiens) (UniProt Q9UM73+P06748+Q96SW2); assay: Protac activity at CRBN/NPM-ALK in human KARPAS-299 cells assessed as induction of NPM-ALK fusion protein degradation at 0.1 uM incubated for 24 hrs by Western blot analysis relative to control; format: cell-based
[20] = Observed oral clearance in Sprague-Dawley rat at 50 mg/kg, ip administered as single dose measured for 24 hrs by LC-MS/MS analysis; format: ADME, organism-based; settings: in vivo
KARPAS-299 [21] = assay: Antitumor activity against human KARPAS-299 cells xenografted in NCG mouse assessed as reduction in tumor volume at 25 to 50 mg/kg, ip administered once every day for 3 weeks and measured every 3 days; format: functional, organism-based; settings: dose 25-50 mg/kg
[22] = MRTlast in Sprague-Dawley rat at 1 mg/kg, iv administered as single dose measured for 24 hrs by LC-MS/MS analysis; format: ADME, organism-based; settings: in vivo
BaF3 [23] = assay: Antiproliferative activity against crizotinib-resistant mouse BaF3 cells expressing EML-ALK G1202R mutant assessed as cell viability at 1 uM incubated for 72 hrs by Celltitre-Glo assay relative to control; format: functional; settings: read-out: Activity

Chain of ALK tyrosine kinase receptor (Q9UM73 whole entry, the tested form may be a part): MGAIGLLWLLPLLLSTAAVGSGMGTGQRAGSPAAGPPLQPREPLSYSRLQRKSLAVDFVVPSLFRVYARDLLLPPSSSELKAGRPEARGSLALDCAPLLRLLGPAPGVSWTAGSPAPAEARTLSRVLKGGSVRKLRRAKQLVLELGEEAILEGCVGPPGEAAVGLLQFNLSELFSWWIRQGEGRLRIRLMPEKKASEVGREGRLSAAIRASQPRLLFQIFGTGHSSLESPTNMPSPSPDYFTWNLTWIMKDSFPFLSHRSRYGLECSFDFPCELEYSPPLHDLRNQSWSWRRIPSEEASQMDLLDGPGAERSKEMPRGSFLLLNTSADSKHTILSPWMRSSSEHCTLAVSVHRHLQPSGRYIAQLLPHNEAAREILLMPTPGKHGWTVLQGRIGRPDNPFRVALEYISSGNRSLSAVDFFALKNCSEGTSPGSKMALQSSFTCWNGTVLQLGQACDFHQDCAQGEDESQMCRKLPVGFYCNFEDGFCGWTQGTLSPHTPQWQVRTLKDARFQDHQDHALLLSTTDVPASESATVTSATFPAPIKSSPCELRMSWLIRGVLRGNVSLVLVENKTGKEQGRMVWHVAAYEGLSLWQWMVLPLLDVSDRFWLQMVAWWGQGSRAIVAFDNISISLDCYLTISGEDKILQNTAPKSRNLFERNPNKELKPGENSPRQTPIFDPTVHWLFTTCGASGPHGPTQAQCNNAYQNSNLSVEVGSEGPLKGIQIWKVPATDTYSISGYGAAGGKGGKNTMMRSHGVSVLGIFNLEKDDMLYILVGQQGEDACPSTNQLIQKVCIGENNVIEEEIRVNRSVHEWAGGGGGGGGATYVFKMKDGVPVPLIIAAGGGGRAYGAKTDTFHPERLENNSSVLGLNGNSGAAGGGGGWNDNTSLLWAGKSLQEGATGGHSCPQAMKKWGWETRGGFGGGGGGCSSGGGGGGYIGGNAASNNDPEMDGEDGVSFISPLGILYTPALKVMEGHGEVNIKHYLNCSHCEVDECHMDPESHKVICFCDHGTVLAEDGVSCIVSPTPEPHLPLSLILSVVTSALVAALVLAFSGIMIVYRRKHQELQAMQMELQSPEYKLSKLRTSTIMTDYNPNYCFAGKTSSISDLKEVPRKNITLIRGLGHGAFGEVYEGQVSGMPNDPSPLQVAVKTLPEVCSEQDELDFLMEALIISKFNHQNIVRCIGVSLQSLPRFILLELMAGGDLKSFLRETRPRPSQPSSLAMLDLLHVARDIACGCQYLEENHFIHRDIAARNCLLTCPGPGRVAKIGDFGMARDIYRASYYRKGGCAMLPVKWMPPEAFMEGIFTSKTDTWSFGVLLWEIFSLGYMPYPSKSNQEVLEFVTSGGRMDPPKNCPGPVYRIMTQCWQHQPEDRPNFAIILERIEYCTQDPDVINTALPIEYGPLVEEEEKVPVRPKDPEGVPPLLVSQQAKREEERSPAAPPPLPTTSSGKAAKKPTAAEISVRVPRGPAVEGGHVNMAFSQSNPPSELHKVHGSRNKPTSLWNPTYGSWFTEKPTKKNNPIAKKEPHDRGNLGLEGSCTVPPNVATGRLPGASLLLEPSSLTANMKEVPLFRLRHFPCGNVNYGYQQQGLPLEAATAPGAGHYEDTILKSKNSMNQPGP

- IC50 [2]: 13600 nM
- Activity [3]: 22.6%
- Vd [6]: 3.89 L/kg
- Tmax [11]: 15 min
- EC50 [12]: 116 nM
- EC50 [14]: 27.4 nM
- Activity [16]: 83.6%
- Activity [18]: 50.3%
- Activity [19]: 8.6%
- CL/F [20]: 743 mL/min/kg
- MRT last at 24 h [22]: 4.2 min
Structure (SMILES): CCc1cc2c(cc1N1CCN(C(=O)CNc3cccc4c3C(=O)N(C3CCC(=O)NC3=O)C4=O)CC1)C(C)(C)c1[nH]c3cc(C#N)ccc3c1C2=O (stereo not drawn)
- Activity (KARPAS-299 [1]): Active
- viability at 1 µM (BaF3 [4]): 116%
- Activity (KARPAS-299 [5]): Active
- Activity (KARPAS-299 [7]): Active
- Activity [8]: Non-Toxic
- Activity (KARPAS-299 [9]): Active
- viability at 1 µM (BaF3 [10]): 0.1%
- Activity [13]: >85%
- Activity (KARPAS-299 [15]): Active
- Activity (KARPAS-299 [17]): Active
- Activity (KARPAS-299 [21]): Active
- viability at 1 µM (BaF3 [23]): 77.6%
